Legend:
Experiment in all cases: drug sensitivity score (DSS3, normalised partial AUC of % inhibition dose-response) (DSS (score)); higher = more sensitive (stronger inhibition of viability); extreme values may be limits of the assay
FMOC03 = patient-derived mucinous ovarian cancer cells; settings: 72 h; library: FO5A; assay format: 2D, 384-well, CellTiter-Glo
Outline: (§1)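 On 384-well flat clear-bottom plates carrying compounds at five concentrations across a 10,000-fold range, patient-derived ovarian cancer cells below passage 10 were incubated for 72 h at 37 °C with 5% CO2. CellTiter-Glo readout of viability was processed in Breeze. A higher drug sensitivity score, defined as the partial area under the percent-inhibition dose-response curve divided by the log of the upper asymptote, means greater sensitivity.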

FMOC28 = patient-derived low-grade serous ovarian cancer cells; settings: 72 h; library: FO5A; assay format: 2D, 384-well, CellTiter-Glo
Outline: as §1

FMOC02_3 = patient-derived low-grade serous ovarian cancer cells; settings: 72 h; library: FO5A; assay format: 2D, 384-well, CellTiter-Glo
Outline: as §1

FMOC27 = patient-derived low-grade serous ovarian cancer cells; settings: 72 h; library: FO5A; assay format: 2D, 384-well, CellTiter-Glo
Outline: as §1

FMOC25_2 = patient-derived low-grade serous ovarian cancer cells; settings: 72 h; library: FO5A; assay format: 2D, 384-well, CellTiter-Glo
Outline: as §1

FMOC14 = patient-derived high-grade serous ovarian cancer cells; settings: 72 h; library: FO5A; assay format: 2D, 384-well, CellTiter-Glo
Outline: as §1

FMOC06 = patient-derived mucinous ovarian cancer cells; settings: 72 h; library: FO5A; assay format: 2D, 384-well, CellTiter-Glo
Outline: as §1

FMOC11 = patient-derived high-grade serous ovarian cancer cells; settings: 72 h; library: FO5A; assay format: 2D, 384-well, CellTiter-Glo
Outline: as §1

FMOC17 = patient-derived low-grade serous ovarian cancer cells; settings: 72 h; library: FO5A; assay format: 2D, 384-well, CellTiter-Glo
Outline: as §1

FMOC04 = patient-derived high-grade serous ovarian cancer cells; settings: 72 h; library: FO5A; assay format: 2D, 384-well, CellTiter-Glo
Outline: as §1

FMOC02_2 = patient-derived low-grade serous ovarian cancer cells; settings: 72 h; library: FO5A; assay format: 2D, 384-well, CellTiter-Glo
Outline: as §1

FMOC24 = patient-derived high-grade serous ovarian cancer cells; settings: 72 h; library: FO5A; assay format: 2D, 384-well, CellTiter-Glo
Outline: as §1

FMOC22 = patient-derived mucinous ovarian cancer cells; settings: 72 h; library: FO5A; assay format: 2D, 384-well, CellTiter-Glo
Outline: as §1

FMOC25_1 = patient-derived low-grade serous ovarian cancer cells; settings: 72 h; library: FO4B; assay format: 2D, 384-well, CellTiter-Glo
Outline: as §1

FMOC09 = patient-derived high-grade serous ovarian cancer cells; settings: 72 h; library: FO5A; assay format: 2D, 384-well, CellTiter-Glo
Outline: as §1

FMOC02_1 = patient-derived low-grade serous ovarian cancer cells; settings: 72 h; library: FO5A; assay format: 2D, 384-well, CellTiter-Glo
Outline: as §1

C[C@@H](C(=O)O)c1ccc(-c2ccccc2)c(F)c1 [Tarenflurbil]
drug sensitivity score (FMOC03): 0 | drug sensitivity score (FMOC28): 0 | drug sensitivity score (FMOC02_3): 0.3 | drug sensitivity score (FMOC27): 0 | drug sensitivity score (FMOC25_2): 0 | drug sensitivity score (FMOC14): 0 | drug sensitivity score (FMOC06): 0 | drug sensitivity score (FMOC11): 0 | drug sensitivity score (FMOC17): 0 | drug sensitivity score (FMOC04): 0 | drug sensitivity score (FMOC02_2): 0 | drug sensitivity score (FMOC24): 1.05 | drug sensitivity score (FMOC22): 0 | drug sensitivity score (FMOC25_1): 0 | drug sensitivity score (FMOC09): 0 | drug sensitivity score (FMOC02_1): 0

O=c1[nH]c(C2CCCN2)nc2c1oc1ccc(Cl)cc12 (configuration not stated)
drug sensitivity score (FMOC03): 0.3 | drug sensitivity score (FMOC28): 4.4 | drug sensitivity score (FMOC02_3): 3.9 | drug sensitivity score (FMOC27): 0 | drug sensitivity score (FMOC25_2): 0 | drug sensitivity score (FMOC14): 0 | drug sensitivity score (FMOC06): 0 | drug sensitivity score (FMOC11): 0.4 | drug sensitivity score (FMOC17): 0 | drug sensitivity score (FMOC04): 0 | drug sensitivity score (FMOC02_2): 0 | drug sensitivity score (FMOC24): 0 | drug sensitivity score (FMOC22): 0 | drug sensitivity score (FMOC25_1): 2 | drug sensitivity score (FMOC09): 0 | drug sensitivity score (FMOC02_1): 2.7

CN(C)C(=N)NC(=N)N [Metformin]
drug sensitivity score (FMOC03): 0 | drug sensitivity score (FMOC28): 0 | drug sensitivity score (FMOC02_3): 0 | drug sensitivity score (FMOC27): 0 | drug sensitivity score (FMOC25_2): 0 | drug sensitivity score (FMOC14): 0 | drug sensitivity score (FMOC06): 0 | drug sensitivity score (FMOC11): 0 | drug sensitivity score (FMOC17): 0 | drug sensitivity score (FMOC04): 0 | drug sensitivity score (FMOC02_2): 0 | drug sensitivity score (FMOC24): 0 | drug sensitivity score (FMOC22): 0 | drug sensitivity score (FMOC25_1): 0 | drug sensitivity score (FMOC09): 0 | drug sensitivity score (FMOC02_1): 0

CC[C@H](Nc1ncnc2[nH]cnc12)c1nc2cccc(F)c2c(=O)n1-c1ccccc1 [Idelalisib]
drug sensitivity score (FMOC03): 0.4 | drug sensitivity score (FMOC28): 3.3 | drug sensitivity score (FMOC02_3): 3.7 | drug sensitivity score (FMOC27): 0.4 | drug sensitivity score (FMOC25_2): 1.1 | drug sensitivity score (FMOC14): 0 | drug sensitivity score (FMOC06): 2.7 | drug sensitivity score (FMOC11): 1.9 | drug sensitivity score (FMOC17): 2.8 | drug sensitivity score (FMOC04): 0.1 | drug sensitivity score (FMOC02_2): 2.4 | drug sensitivity score (FMOC24): 0 | drug sensitivity score (FMOC22): 0.1 | drug sensitivity score (FMOC25_1): 1.4 | drug sensitivity score (FMOC09): 2 | drug sensitivity score (FMOC02_1): 2.3

Cc1c(C(=O)Nc2ccc(N3C[C@@H](C)O[C@@H](C)C3)nc2)cccc1-c1ccc(OC(F)(F)F)cc1 [Sonidegib]
drug sensitivity score (FMOC03): 0 | drug sensitivity score (FMOC28): 2.1 | drug sensitivity score (FMOC02_3): 1.3 | drug sensitivity score (FMOC27): 0 | drug sensitivity score (FMOC25_2): 0 | drug sensitivity score (FMOC14): 0 | drug sensitivity score (FMOC06): 0 | drug sensitivity score (FMOC11): 0.4 | drug sensitivity score (FMOC17): 3 | drug sensitivity score (FMOC04): 0 | drug sensitivity score (FMOC02_2): 0.1 | drug sensitivity score (FMOC24): 2.45 | drug sensitivity score (FMOC22): 0 | drug sensitivity score (FMOC25_1): 0 | drug sensitivity score (FMOC09): 0.1 | drug sensitivity score (FMOC02_1): 2.1

CC1(C)NC(=O)N(c2ccc([N+](=O)[O-])c(C(F)(F)F)c2)C1=O [Nilutamide]
drug sensitivity score (FMOC03): 0 | drug sensitivity score (FMOC28): 0 | drug sensitivity score (FMOC02_3): 0 | drug sensitivity score (FMOC27): 0.1 | drug sensitivity score (FMOC25_2): 0 | drug sensitivity score (FMOC14): 0 | drug sensitivity score (FMOC06): 0 | drug sensitivity score (FMOC11): 0 | drug sensitivity score (FMOC17): 0.5 | drug sensitivity score (FMOC04): 0 | drug sensitivity score (FMOC02_2): 0 | drug sensitivity score (FMOC24): 0.65 | drug sensitivity score (FMOC22): 0 | drug sensitivity score (FMOC25_1): 0 | drug sensitivity score (FMOC09): 0 | drug sensitivity score (FMOC02_1): 0

O[C@H]1CC[C@H](Nc2ncc3nc(Nc4c(F)cc(F)cc4F)n([C@H]4CCOC4)c3n2)CC1 [Tanzisertib]
drug sensitivity score (FMOC03): 0 | drug sensitivity score (FMOC28): 0 | drug sensitivity score (FMOC02_3): 1.1 | drug sensitivity score (FMOC27): 0.1 | drug sensitivity score (FMOC25_2): 0 | drug sensitivity score (FMOC14): 0 | drug sensitivity score (FMOC06): 0 | drug sensitivity score (FMOC11): 0 | drug sensitivity score (FMOC17): 0.8 | drug sensitivity score (FMOC04): 0 | drug sensitivity score (FMOC02_2): 1.6 | drug sensitivity score (FMOC24): 1.45 | drug sensitivity score (FMOC22): 0.1 | drug sensitivity score (FMOC25_1): 0 | drug sensitivity score (FMOC09): 0 | drug sensitivity score (FMOC02_1): 2.3

CN(C)C(=O)c1ccc(S(=O)(=O)c2ccc(NC(=O)[C@@](C)(O)C(F)(F)F)c(Cl)c2)cc1 [AZD7545]
drug sensitivity score (FMOC03): 0 | drug sensitivity score (FMOC28): 2.4 | drug sensitivity score (FMOC02_3): 0 | drug sensitivity score (FMOC27): 0 | drug sensitivity score (FMOC25_2): 0 | drug sensitivity score (FMOC14): 0.4 | drug sensitivity score (FMOC06): 0 | drug sensitivity score (FMOC11): 0 | drug sensitivity score (FMOC17): 0 | drug sensitivity score (FMOC04): 0 | drug sensitivity score (FMOC02_2): 0 | drug sensitivity score (FMOC24): 0 | drug sensitivity score (FMOC22): 0.8 | drug sensitivity score (FMOC25_1): 0 | drug sensitivity score (FMOC09): 0 | drug sensitivity score (FMOC02_1): 0

Nc1nc(NC2CC2)cc(-c2cccc(Cl)c2Cl)n1 [TH588]
drug sensitivity score (FMOC03): 0.4 | drug sensitivity score (FMOC28): 5.7 | drug sensitivity score (FMOC02_3): 5.4 | drug sensitivity score (FMOC27): 2.3 | drug sensitivity score (FMOC25_2): 2.2 | drug sensitivity score (FMOC14): 0.2 | drug sensitivity score (FMOC06): 0 | drug sensitivity score (FMOC11): 2.2 | drug sensitivity score (FMOC17): 3 | drug sensitivity score (FMOC04): 1.15 | drug sensitivity score (FMOC02_2): 5.2 | drug sensitivity score (FMOC24): 0.2 | drug sensitivity score (FMOC22): 2.3 | drug sensitivity score (FMOC25_1): 2.1 | drug sensitivity score (FMOC09): 1.2 | drug sensitivity score (FMOC02_1): 3.4

O=S(=O)(c1cccc2c(O)nccc12)N1CCCNCC1 [Hydroxyfasudil]
drug sensitivity score (FMOC03): 0 | drug sensitivity score (FMOC28): 0 | drug sensitivity score (FMOC02_3): 0 | drug sensitivity score (FMOC27): 0 | drug sensitivity score (FMOC25_2): 0 | drug sensitivity score (FMOC14): 0 | drug sensitivity score (FMOC06): 0 | drug sensitivity score (FMOC11): 0 | drug sensitivity score (FMOC17): 0 | drug sensitivity score (FMOC04): 0 | drug sensitivity score (FMOC02_2): 0 | drug sensitivity score (FMOC24): 1.25 | drug sensitivity score (FMOC22): 0 | drug sensitivity score (FMOC25_1): 0 | drug sensitivity score (FMOC09): 0 | drug sensitivity score (FMOC02_1): 0

Cn1cc(C[C@@H](N)C(=O)O)c2ccccc21 [1-methyl-D-tryptophan]
drug sensitivity score (FMOC03): 0 | drug sensitivity score (FMOC28): 0.5 | drug sensitivity score (FMOC02_3): 0 | drug sensitivity score (FMOC27): 0 | drug sensitivity score (FMOC25_2): 0 | drug sensitivity score (FMOC14): 0 | drug sensitivity score (FMOC06): 0 | drug sensitivity score (FMOC11): 0 | drug sensitivity score (FMOC17): 0 | drug sensitivity score (FMOC04): 0 | drug sensitivity score (FMOC02_2): 0 | drug sensitivity score (FMOC24): 0 | drug sensitivity score (FMOC22): 0 | drug sensitivity score (FMOC25_1): 0 | drug sensitivity score (FMOC09): 0.2 | drug sensitivity score (FMOC02_1): 0

CNC(=O)c1ccc(N2C(=S)N(c3ccc(C#N)c(C(F)(F)F)c3)C(=O)C2(C)C)cc1F [Enzalutamide]
drug sensitivity score (FMOC03): 0 | drug sensitivity score (FMOC28): 0 | drug sensitivity score (FMOC02_3): 0 | drug sensitivity score (FMOC27): 0.1 | drug sensitivity score (FMOC25_2): 0 | drug sensitivity score (FMOC14): 0 | drug sensitivity score (FMOC06): 0.1 | drug sensitivity score (FMOC11): 0 | drug sensitivity score (FMOC17): 0 | drug sensitivity score (FMOC04): 0 | drug sensitivity score (FMOC02_2): 0 | drug sensitivity score (FMOC24): 0 | drug sensitivity score (FMOC22): 0 | drug sensitivity score (FMOC25_1): 0 | drug sensitivity score (FMOC09): 0 | drug sensitivity score (FMOC02_1): 0

— the supplement of paper PMC9938120
